Source: patent publication US10407388B2, “Thiourea derivatives as activators of RORα and pharmaceutical composition containing same” (SEOUL NATIONAL UNIVERSITY R & DB FOUNDATION, priority 2011, dated 2019)

What was measured:
[1] = system: ACO2; assay: Fatty acid oxidation gene ACO2 in HepG2 cells, real-time RT-PCR; type: cell-based, human; conditions: 100 μM, 24 hours; FIG. 8
Experimental: (§1) HepG2 cells (1×10^6 cells/well) were seeded on a 60-dish and cultured overnight in a DMEM containing 10% FBS. The HepG2 cells were maintained at 37° C. in a humidification thermostat containing 5% CO2 and 95% air. After culturing, the HepG2 cells were treated with JC1-38, JC1-40, and JC1-42 at a concentration of 100 μM for 24 hours. After treatment, effects thereof on transcriptional activity were analyzed by real-time reverse transcriptase-polymerase chain reaction (real-time RT-PCR) analysis. The PCR was performed using the following primers respectively specific to MCAD, ACO1, ACO2, HMGCS2, CPT-1, and ACS, which are involved in fatty acid oxidation: […]

[2] = system: MCAD; assay: Fatty acid oxidation gene MCAD in HepG2 cells, real-time RT-PCR; type: cell-based, human; conditions: 100 μM, 24 hours; FIG. 8
Experimental: as §1

[3] = system: SREBP-1; assay: Expression of SREBP-1 protein in HepG2 cells, western blotting; type: cell-based, human; conditions: for expression of SREBP-1 protein: 100 μM, 24 hours, FIG. 6a; for expression of SREBP-1, which had been increased by T17: 0, 1, 10, 50, 100 μM with 1 μM T17, 24 hours, FIGS. 6b and 6c; for expression of proteins (LXRα, SREBP-1, FAS of FIGS. 6b and 6c): 50 μM to 100 μM with 1 μM T17, 24 hours
Experimental: HepG2 cells (1×10^6 cells/well) were seeded on a 60-dish and cultured overnight in a DMEM containing 10% FBS. The HepG2 cells were maintained at 37° C. in a humidification thermostat containing 5% CO2 and 95% air. After culturing, the HepG2 cells were treated with each of the JC1-38, JC1-40, and JC1-42 compounds at a concentration of 100 μM, and, as a positive control, the HepG2 cells were treated with 2 mM metformin, which is an AMPK activator, for 24 hours. After treatment, the expression of proteins was analyzed by western blotting analysis. That is, after treatment, the HepG2 cells were destroyed on ice in a lysis buffer containing 50 mM NaCl, 50 mM Tris pH 7.4, 5 mM EDTA, 1% NP-40, and a protease inhibitor for 30 minutes, and then centrifuged to obtain a total cell lysate. 20 μg to 30 μg of proteins collected from the total cell lysate was subjected to 7% to 9% sodium dodecyl sulfate-polyacrylamide gel electrophoresis (SDS-PAGE), and was transferred to a polyvinylidene difluoride membrane (Millipore, Bedford, Mass., USA). The resulting product was subjected to blocking with 5% or 10% (w/v) nonfat dry milk in PBS containing 0.1% Tween-20, and was reacted with antibodies specific to RORα (Affinity BioReagents), LXRα, SREBP-1, FAS (Santa Cruz Biotechnology), phospho-ACC (Cell signaling), and α-tubulin (Calbiochem). Immunoreactive proteins were detected with Amersham ECL western blotting detection reagents using a horseradish peroxidase (HRP)-conjugated secondary antibody (Zymed Lab). Protein concentrations were quantified by bicinchoninic acid (BCA) (Pierce) analysis, and the expression of α-tubulin was monitored as a control. The results thereof are illustrated in FIG. 6a.
In addition, HepG2 cells were cultured under the same conditions, and then the HepG2 cells were treated with particular concentrations (0 μM, 1 μM, 10 μM, 50 μM, and 100 μM) of JC1-40 (or JC1-42) and 1 μM T17 for 24 hours. After treatment, the expression of proteins was analyzed by western blotting analysis, and the expression of α-tubulin was monitored as a control. The results thereof are illustrated in FIGS. 6b and 6c.

[4] = Chemical stability of JC1 compounds; type: physicochemical
[5] = system: CPT-1; assay: Fatty acid oxidation gene CPT-1 in HepG2 cells, real-time RT-PCR; type: cell-based, human; conditions: 100 μM, 24 hours; FIG. 8
Experimental: as §1

[6] = system: CD36; assay: Fatty acid uptake gene CD36 in HepG2 cells, RT-PCR; type: cell-based, human; conditions: 100 μM, 24 hours; FIG. 9a
Experimental: as §1, with “60-dish,” for “60-dish”, “RT-PCR” for “real-time reverse transcriptase-polymerase chain reaction (real-time RT-PCR)”, “CD36 (see FIG. 9a) involved in fatty acid uptake” for “MCAD, ACO1, ACO2, HMGCS2, CPT-1,”, “MTTP and ApoB100 (see FIG. 9b),” for “ACS,”, “the secretion of very low density lipoproteins:” for “fatty acid oxidation:”

[7] = system: LXRα; assay: Transcriptional activity of LXRα, LXRE-Luc reporter in HepG2 cells treated with T17; type: cell-based, human; conditions: 1 μM, 10 μM, 20 μM, 50 μM, and 100 μM with 1 μM T17, 24 hours; FIG. 5a
Experimental: A human hepatoma cell line and HepG2 (ATCC HB 8065) were purchased from ATCC. HepG2 cells (1.2×10^5 cells/well) were seeded on a 24-well culture plate and cultured overnight in a DMEM containing 10% FBS. The HepG2 cells were maintained at 37° C. in a humidification thermostat containing 5% CO2 and 95% air. After culturing, the HepG2 cells were transformed with LXRE-Luc reporter (0.1 μg) using Welfect-EXTM Plus (WelGENE Inc., Korea). 24 hours after transformation, the HepG2 cells were treated with particular concentrations (1 μM, 10 μM, 20 μM, 50 μM, and 100 μM) of JC1-38, JC1-40, and JC1-42 and 1 μM T17 (T0901317), which is a ligand of LXRα, for 24 hours. Subsequently, cell lysates were collected, and luciferase activity was analyzed and determined using an analytical luminescence luminometer. The luciferase activity was standardized by β-gal activity to determine transcriptional activity, and data was attained as the mean and SD for two or three independent experimental results, and the results thereof are illustrated in FIG. 5a.

[8] = system: ACS; assay: Fatty acid oxidation gene ACS in HepG2 cells, real-time RT-PCR; type: cell-based, human; conditions: 100 μM, 24 hours; FIG. 8
Experimental: as §1

[9] = system: SREBP-1; assay: Transcriptional activity of SREBP-1, SRE-Luc reporter in HepG2 cells treated with T17; type: cell-based, human; conditions: 50 μM with 1 μM T17, 24 hours; FIG. 5b
Experimental: In addition, HepG2 cells were cultured under the same conditions, and then the HepG2 cells were transformed with SRE-Luc reporter (0.1 μg) using Welfect-EXTM Plus (WelGENE Inc., Korea). 24 hours after transformation, the HepG2 cells were treated with each of the JC1-38, JC1-40, and JC1-42 compounds at a concentration of 50 μM and 1 μM T17 (T0901317) for 24 hours. Subsequently, cell lysates were collected, and luciferase activity was analyzed and determined using an analytical luminescence luminometer. The luciferase activity was standardized by β-gal activity to determine transcriptional efficiency, and data was attained as the mean and SD for three independent experimental results, and the results thereof are illustrated in FIG. 5b.

[10] = system: ACO1; assay: Fatty acid oxidation gene ACO1 in HepG2 cells, real-time RT-PCR; type: cell-based, human; conditions: 100 μM, 24 hours; FIG. 8
Experimental: as §1

| chemical stability [4] | SMILES | transcriptional activity of ACO2 [1] | transcriptional activity of MCAD [2] | expression of SREBP-1 protein [3] | transcriptional activity of CPT-1 [5] | transcriptional activity of CD36 [6] | transcriptional activity of LXRα, which had been increased by T17 [7] | transcriptional activity of ACS [8] | transcriptional activity of SREBP-1, which had been increased by T17 [9] | transcriptional activity of ACO1 [10] | expression of SREBP-1, which had been increased by T17 [3] | expression of proteins (LXRα, SREBP-1, FAS of FIGS. 6b and 6c) [3] |
| --- | --- | --- | --- | --- | --- | --- | --- | --- | --- | --- | --- | --- |
| highly chemically stable | CNC(=S)NCc1ccc(Oc2ccccc2)cc1 [Compound 42, 1-(4-phenoxy-benzyl)-3-methyl-thiourea] | increased | increased | decreased | increased | decreased | decreased in a manner dependent on the concentration | increased | decreased | increased | decreased in a manner dependent on the concentration | strongly inhibited |
| highly chemically stable | CNC(=S)NCc1ccc(OCc2ccccc2)cc1 [Compound 40, 1-(4-benzyloxy-benzyl)-3-methyl-thiourea] | increased | increased | decreased | increased | decreased | decreased in a manner dependent on the concentration | increased | decreased | increased | decreased in a manner dependent on the concentration | strongly inhibited |

| SMILES | chemical stability [4] | transcriptional activity of ACO2 [1] | transcriptional activity of MCAD [2] | expression of SREBP-1 protein [3] | transcriptional activity of CPT-1 [5] | transcriptional activity of CD36 [6] | transcriptional activity of LXRα, which had been increased by T17 [7] | transcriptional activity of ACS [8] | transcriptional activity of SREBP-1, which had been increased by T17 [9] | transcriptional activity of ACO1 [10] | expression of SREBP-1, which had been increased by T17 [3] | expression of proteins (LXRα, SREBP-1, FAS of FIGS. 6b and 6c) [3] |
| --- | --- | --- | --- | --- | --- | --- | --- | --- | --- | --- | --- | --- |
| CNC(=S)NCc1ccccc1-c1ccncc1 [Compound 38, 1-methyl-3-(4-pyridinyl-2-benzyl)-thiourea] | highly chemically stable | increased | increased | decreased | increased | decreased | decreased in a manner dependent on the concentration | increased | decreased | increased | – | – |
